Laboratory results reported in patent US20080319065A1, “Systemic and Intrathecal Effects of a Novel Series of Phospholipase A2 Inhibitors on Hyperalgesia and Spinal Pge2 Release” (The Regents of the University of California, priority 2005, published 2008).

Experiments:
COX-1 and COX-2 proteins = test: COX Activity Assay kit, in vitro cyclooxygenase activity; format: biochemical; conditions: 50 μM
Method: Inhibitors dissolved in DMSO (study compounds) or ethanol (indomethacin) were added to 50 μM final concentration and allowed to incubate with the assay mixture including enzyme for 5 minutes. After addition of TMPD and arachidonic acid, samples were mixed and allowed to incubate 5 minutes at room temperature before reading absorbance at 595 nm to determine results. Results were calculated and percent inhibition values derived.

[1] = target: T1, Group IVA cPLA2 (GIVA PLA2) (Homo sapiens, UniProt P47712); test: In vitro Group IVA cPLA2 mixed micelle assay; format: biochemical
T1 sequence (P47712 1-749): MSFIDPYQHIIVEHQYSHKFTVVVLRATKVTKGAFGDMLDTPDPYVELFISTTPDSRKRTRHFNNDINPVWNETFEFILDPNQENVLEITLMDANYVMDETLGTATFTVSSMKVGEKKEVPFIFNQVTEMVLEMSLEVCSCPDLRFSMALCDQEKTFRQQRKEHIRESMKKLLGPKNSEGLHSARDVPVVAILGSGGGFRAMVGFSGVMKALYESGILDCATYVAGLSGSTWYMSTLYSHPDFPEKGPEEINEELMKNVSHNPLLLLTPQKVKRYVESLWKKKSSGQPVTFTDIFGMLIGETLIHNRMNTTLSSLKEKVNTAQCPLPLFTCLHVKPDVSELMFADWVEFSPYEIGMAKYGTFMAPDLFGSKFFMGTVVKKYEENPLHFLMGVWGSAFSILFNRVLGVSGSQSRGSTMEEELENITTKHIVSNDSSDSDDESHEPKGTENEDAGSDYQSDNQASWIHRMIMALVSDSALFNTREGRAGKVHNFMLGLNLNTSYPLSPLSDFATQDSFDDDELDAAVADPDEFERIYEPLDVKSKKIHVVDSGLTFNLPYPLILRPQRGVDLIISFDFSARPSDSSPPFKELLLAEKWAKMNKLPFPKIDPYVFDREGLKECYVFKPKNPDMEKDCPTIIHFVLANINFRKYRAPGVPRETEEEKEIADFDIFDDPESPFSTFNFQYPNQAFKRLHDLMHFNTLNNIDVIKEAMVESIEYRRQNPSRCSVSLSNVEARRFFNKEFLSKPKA
Method: (§1) Numerous 2-oxoamides were tested for inhibition of PLA2s in in vitro assay systems. The data, summarized in Tables 1a, 1b and 2 are represented as XI(50) values unless otherwise noted. XI(50) is defined as the inhibitor concentration that produced 50% inhibition. XI(50) is used as opposed to the more common IC50 because GIVA and GVIA PLA2 are active at a two-dimensional lipid interface rather than in three-dimensional solution. (Deems, Anal. Biochem., 287:1-16, 2000). The 2-oxoamide inhibitors likely partition to the micelle interface and therefore must be represented as a percentage of surface concentration (mole fraction) as opposed to bulk concentration (molar units). (Kokotos, et al., J. Med. Chem., 45:2891-2893, 2002).
(§2) In vitro Group IV cPLA2 and Group VI iPLA2 assays were done as previously described (Kokotos, et al., supra, 2002). Briefly, 100 μM lipid substrate and 100,000 cpm radiolabeled analog were dried down under N2 and dissolved in assay buffer containing 400 μM Triton X-100 to yield a mixed micelle substrate solution. Inhibitors dissolved in DMSO were added to the reaction tubes and allowed to incubate with substrate for five minutes at 40° C. Pure enzyme was added to yield a final volume of 500 μl, and digestion was carried out at 40° C. for 30 minutes. Reactions were quenched and extracted using the Dole method and products were quantified by liquid scintillation counting. Percent inhibition was determined at a range of inhibitor mole fraction concentrations for XI(50) calculations.

GV sPLA2 = target: T2, GV sPLA2 (Homo sapiens, UniProt P39877); test: GV sPLA2 activity assay; format: biochemical; conditions: at 0.091 mole fraction
T2 sequence (P39877 21-138): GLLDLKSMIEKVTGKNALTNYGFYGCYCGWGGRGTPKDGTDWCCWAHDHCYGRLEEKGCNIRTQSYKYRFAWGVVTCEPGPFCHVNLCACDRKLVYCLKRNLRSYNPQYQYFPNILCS
Method: GV sPLA2 activity was measured in a similar assay. The final assay buffer was composed of 50 mM Tris-HCl (pH 8.0) and 5 mM CaCl2. Each assay was performed in 500 μL total volume made up of 100 μL of 5× substrate solution (20 μL of 10 mM Triton X-100 and 80 μL assay buffer), 390 μL assay buffer, 10 μL GV sPLA2 solution (1 μL of 40 ng/μL stock and 9 μL assay buffer), and 5 μL of DMSO or 2-oxoamide in DMSO. The 5× substrate solution was prepared by drying down the phospholipids (in organic solvent) with N2. The appropriate volume of 10 mM Triton X-100 was added, heated and vortexed until clear. Then assay buffer was added to make a 5× substrate solution. The final mixed micelles were at 400 μM Triton X-100 and 100 μM DPPC (of which 100,000 cpm of ^14C-DPPC).

GVIA PLA2 = target: T3, GVIA PLA2 (Homo sapiens, UniProt O60733); test: Time dependence and reversibility of GVIA PLA2 inhibition; format: biochemical
T3 sequence (O60733 1-806): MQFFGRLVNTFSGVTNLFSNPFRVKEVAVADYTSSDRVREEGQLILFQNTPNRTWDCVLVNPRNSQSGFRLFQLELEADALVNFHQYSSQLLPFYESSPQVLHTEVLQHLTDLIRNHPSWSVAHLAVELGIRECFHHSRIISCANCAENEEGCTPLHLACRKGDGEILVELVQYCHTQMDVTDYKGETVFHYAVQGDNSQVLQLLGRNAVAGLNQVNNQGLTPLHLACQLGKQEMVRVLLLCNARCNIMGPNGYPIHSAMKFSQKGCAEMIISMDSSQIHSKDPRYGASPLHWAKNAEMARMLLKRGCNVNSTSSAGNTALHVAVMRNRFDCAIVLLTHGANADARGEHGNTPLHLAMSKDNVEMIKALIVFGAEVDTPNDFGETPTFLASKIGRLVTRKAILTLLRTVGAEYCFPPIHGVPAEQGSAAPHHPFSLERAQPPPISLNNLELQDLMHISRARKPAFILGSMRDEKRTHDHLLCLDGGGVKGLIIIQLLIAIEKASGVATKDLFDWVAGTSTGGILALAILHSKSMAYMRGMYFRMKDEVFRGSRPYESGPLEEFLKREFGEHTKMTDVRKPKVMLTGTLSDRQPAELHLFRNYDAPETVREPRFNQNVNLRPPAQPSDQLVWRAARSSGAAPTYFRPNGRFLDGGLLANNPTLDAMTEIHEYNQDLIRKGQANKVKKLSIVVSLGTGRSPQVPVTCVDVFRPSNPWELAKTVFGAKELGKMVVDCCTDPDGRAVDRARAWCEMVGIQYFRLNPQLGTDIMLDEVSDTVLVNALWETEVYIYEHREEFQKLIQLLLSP
Method: GVIA PLA2 (25 ng) was preincubated with either AX010 or AX0073 (5 μM) for 0, 5, 15 or 30 minutes and then assayed in the standard GVIA PLA2 assay mix containing 5 μM inhibitor. The final concentration of the inhibitors in the assay mix was 0.01 mole fraction, and the samples were incubated for 30 minutes at 40° C. […] In the latter respect, 25 ng of GVIA PLA2 was pre-incubated with 10 μM AX010 or AX073 for 10 minutes before diluting the enzyme 1:50 into the standard GVIA PLA2 assay mix lacking inhibitor, and incubating for 30 minutes at 40° C. The final inhibitor concentration in these assays was 0.0004 mole fraction, well below surface concentrations that either AX010 or AX073 inhibit the enzyme.

[2] = tested on: murine RAW 264.7 macrophage-like cell line; test: Long-term LPS stimulation, PGE2 release; format: cell-based; conditions: low μM range
Method: Several 2-oxoamides were tested in the long-term lipopolysaccharide (LPS) stimulation pathway in the murine RAW 264.7 macrophage-like cell line. (Raschke, et al., Cell, 1978, 15, 261-267). This pathway requires GIVA PLA2 activity and results in the extracellular release of many eicosanoid compounds including the prostaglandin PGE2. (Gijon, et al., leukoc. Biol., 1999, 65, 330-336). […] In the low μM range, AX041 and AX073 reduced PGE2 release by roughly 40% (FIG. 1(D)). At 1 μM and 5 μM concentrations, small activations were often seen. The in vitro and cellular results together are consistent with the known roles of GVIA PLA2 given that AX010, a selective GVIA inhibitor, had no cellular effect. […] Inhibitors selective for GIVA PLA2 or dual specificity inhibitors reduce PGE2 levels, also consistent with the known role of GIVA PLA2 in PGE2 production.

[3] = target: T4, Group VIA iPLA2 (GVIA PLA2) (Homo sapiens, UniProt O60733); test: In vitro Group VIA iPLA2 mixed micelle assay; format: biochemical
T4 sequence (O60733 1-806): T3 sequence (O60733 1-806)
Method: as §1, §2

| Structure (SMILES) | inhibition of cyclooxygenase activity (COX-1 and COX-2 proteins) | Inhibition of GIVA PLA2, XI(50) [1] | melting point [°C] | efficacy against sPLA2 (GV sPLA2) [%] | reversibility of GVIA PLA2 inhibition (GVIA PLA2; pre-incubated with 10 μM for 10 minutes, diluted 1:50, final 0.0004 mole fraction) | time-dependent inhibition of GVIA PLA2 (GVIA PLA2; preincubated 0, 5, 15 or 30 minutes, 5 μM inhibitor, 0.01 mole fraction) | reduction of PGE2 release [2] | Inhibition of GVIA PLA2, XI(50) [3] |
| --- | --- | --- | --- | --- | --- | --- | --- | --- |
| COc1ccc2c(c1)c(CC(=O)O)c(C)n2C(=O)c1ccc(Cl)cc1 [indomethacin, reference compound] | near complete inhibition | – | – | – | – | – | – | – |
| CCCCCCCCCCCCCCC(=O)C(=O)NC(C=CC(=O)OC)CCCC (centres unmarked) [AX073, 4-(2-Oxo-hexadecanoylamino)-oct-2-enoic acid methyl ester] | – | XI(50) =0.018 ± 0.010 mole fraction | 48 to 50 | 75.3 | freely reversible inhibitors | no increased potency with prolonged incubation | roughly 40% | XI(50) =0.032 ± 0.010 mole fraction |
